In patent publication US11464754B2, “Betaine for the prevention of obesity” (HOSPITAL SANT JOAN DE DEU, priority 2017, dated 2022):

Tests used:
[1] = Betaine levels and composition of dam milk, and offspring plasma betaine, after maternal betaine supplementation during lactation; assay type: in vivo, mice
Protocol: All animal protocols were approved by the Institutional Animal Care and Use Committee of the University of Barcelona (Spain). Mice were housed on a 12-hour light-dark cycle with free access to food and water. Male and female ICR-CD1 mice (Envigo) were mated to obtain progeny. To minimize growth variability, litters were adjusted to 8 pups per dam at birth removing heaviest and lightest mice. Glycine betaine (1% wt/vol), ampicilin (1 g/L), and neomycin (0.5 g/L) (Sigma-Aldrich) were administered in water during lactation. After weaning, mice were housed 4 per cage and fed the 2014 Teklad diet (Envigo). […] To assess milk intake, pups were separated from dams for 2 hours and returned to their cages for 1 hour; difference in body weight before and after the feeding was expressed as grams per initial body weight per hour. […] Body composition was determined by using a 7.0T Bruker Biospect MRI system (Bruker Medical Gmbh, Germany). Indirect calorimetry was measured in metabolic cages (PhenoMaster/LabMaster, TSE Systems GmbH, Germany); O2, CO2, food intake, and locomotor activity were monitored for 48 hours, and data analyzed using 2-way ANOVA for repeated measures. […]
Mouse milk samples were diluted 1:3 before macronutrient analysis by mid-infrared spectroscopy in a Miris Analyzer (Miris AB). […] Plasma insulin was determined by ELISA (Millipore). […]

ICR-CD1 mice [2] = experiment: Maternal betaine supplementation during lactation, lean dams: offspring growth, adiposity and metabolism on chow diet; assay type: in vivo
Protocol: (§1) All animal protocols were approved by the Institutional Animal Care and Use Committee of the University of Barcelona (Spain). Mice were housed on a 12-hour light-dark cycle with free access to food and water. Male and female ICR-CD1 mice (Envigo) were mated to obtain progeny. To minimize growth variability, litters were adjusted to 8 pups per dam at birth removing heaviest and lightest mice. Glycine betaine (1% wt/vol), ampicilin (1 g/L), and neomycin (0.5 g/L) (Sigma-Aldrich) were administered in water during lactation. After weaning, mice were housed 4 per cage and fed the 2014 Teklad diet (Envigo). For diet-induced obesity, a high-fat diet (HFD, 45% kcal from fat) was provided (D12451, Research Diets). For maternal obesity studies, 6-week-old females were fed HFD for 8 weeks before mating; this same diet was maintained through pregnancy and lactation. To assess milk intake, pups were separated from dams for 2 hours and returned to their cages for 1 hour; difference in body weight before and after the feeding was expressed as grams per initial body weight per hour. For milk harvesting, samples were collected manually under anesthesia (pentobarbital, 40 mg/kg) at day 14 after birth; dams and pups were sacrificed after milk collection, and cecal content obtained for microbiome studies. Body composition was determined by using a 7.0T Bruker Biospect MRI system (Bruker Medical Gmbh, Germany). Indirect calorimetry was measured in metabolic cages (PhenoMaster/LabMaster, TSE Systems GmbH, Germany); O2, CO2, food intake, and locomotor activity were monitored for 48 hours, and data analyzed using 2-way ANOVA for repeated measures. Intraperitoneal glucose (1.5 g/kg) and insulin (0.6 U/kg) tolerance test were performed after a 16 or 4 hour fast, respectively. Mice were anesthetized (intraperitoneal pentobarbital, 50 mg/kg) and sacrificed between 9-11 am.
(§2) Mouse milk samples were diluted 1:3 before macronutrient analysis by mid-infrared spectroscopy in a Miris Analyzer (Miris AB). Relative betaine concentrations were determined by liquid chromatography (Acquity UPLC BEH HILIC column, Waters) coupled to mass spectrometry (QqQ/MS 6490, Agilent). Plasma insulin was determined by ELISA (Millipore). Plasma MCP-1, IL-6 and PAI-1 were measured using Milliplex Map (EMD Millipore, Merck). Hepatic and fecal triglycerides were quantified in chloroform-methanol extracts from liver or feces (50 mg) using Triglyceride Assay Kit (Sigma-Aldrich).
(§3) Tissues were fixed by immersion in formalin, paraffin-embedded, and sections stained with hematoxylin/eosin. For WAT, adipocyte area was measured in 30 random microscopic fields per animal (10-20 cells/field). For ileum, cross-sectional cuts were stained with Periodic acid-Schiff (PAS) method. Ten villi per mouse from 5-6 sections were analyzed. Goblet cell number per villus was determined and expressed as number of cells per 100 μm. Analyses were performed using ImageJ by a researcher blinded to sample ID.
To study whether milk betaine modulates growth and obesity risk, we performed maternal supplementation experiments in mice exclusively during lactation. Dams were randomly assigned to control (C) or treatment (B, 1% betaine in water) groups the first day after delivery. Milk samples were collected at day 14 after birth from a subset of dams to determine betaine levels.
(§4) It was also investigated whether the above changes during early life translated into long-term metabolic improvements. Offspring was maintained on a chow diet after weaning and monitored up to 24 weeks of age. […] Consistent with lower adiposity, adipocyte size and inflammatory markers were decreased in male offspring from betaine-treated dams. […] Furthermore, basal insulin levels decreased by 40% in treatment compared to control group (p<0.05, FIG. 5D).

ICR-CD1 mice [3] = experiment: Maternal betaine supplementation during lactation in mouse model of maternal obesity; assay type: in vivo
Protocol: as §1
To test whether betaine interacts with maternal obesity, betaine supplementation was performed during lactation in a mouse model of maternal obesity. Dams were fed a high-fat diet (HFD) for 8 weeks before mating, and randomly assigned to control (MO-C) or betaine treatment (MO-B) groups at delivery. Supplementation was performed as described above.
as §4

ICR-CD1 mice [4] = experiment: Intestinal epithelium and inflammatory markers in 6-week-old offspring of betaine-treated dams; assay type: in vivo
Protocol: as §1, §2
Total RNA from tissues was isolated with TRI Reagent (Sigma-Aldrich) and cDNA obtained with High-capacity cDNA kit (Applied Biosystems). qPCR was performed with SybrGreen (Takara Bio), using Hprt as housekeeping gene. Primer sequences are the following:
as §3
These changes were accompanied by decreased mRNA levels of inflammatory markers (Ccl2, TIr4, Cd11c) in epididymal white adipose tissue (eWAT, FIG. 4B).

ICR-CD1 mice [5] = experiment: Diet-induced obesity (HFD for 16 weeks) in offspring of betaine-treated dams; assay type: in vivo
Protocol: as §1, §2
It was then tested whether this early-life intervention protected against diet-induced obesity. To this end, 6-week-old offspring of lean control or betaine-treated dams were fed a HFD for 16 weeks (HF-C and HF-B groups, respectively). […] Supplementation ameliorated glucose tolerance (FIG. 6B), and decreased fasting glucose (Time 0, FIG. 6B) and insulin levels (FIG. 6C). Hepatic triglyceride accumulation was reduced by 30% in the HF-B group (p<0.05, FIG. 6D).

[6] = adult male offspring, chow diet

Question: With `C[N+](C)(C)CC(=O)O` [betaine, glycine betaine] as the compound, how does the “increase of milk betaine content” value ([1]; dam milk at day 14 after birth, 1% betaine in water during lactation, vs control) read?
Answer: 5 fold

Question: What about the “increase of offspring plasma betaine” value ([1]; fourteen-day-old offspring of betaine-treated dams) of the same compound?
Answer: 1.8 fold

Question: What about the glucose tolerance (ICR-CD1 mice [2]; adult female offspring) of the same compound?
Answer: no effect

Question: What about the “adipocyte size and inflammatory markers” value (ICR-CD1 mice [2]; [6]) of the same compound?
Answer: decreased

Question: What about the “decrease of basal insulin levels” value (ICR-CD1 mice [2]; adult male offspring, treatment vs control group) of the same compound?
Answer: 40%

Question: And the glucose tolerance (ICR-CD1 mice [2]; adult male offspring, week 20)?
Answer: notable improvement

Question: And the “blood glucose at each time point in insulin tolerance testing” value (ICR-CD1 mice [2]; adult males)?
Answer: significantly lower

Question: What about the “response to insulin administration” value (ICR-CD1 mice [2]; adult males, insulin tolerance testing) of the same compound?
Answer: no difference

Question: And the hepatic triglyceride accumulation (ICR-CD1 mice [2]; adult offspring, chow diet)?
Answer: no significant effect

Question: And the “body weight gain and eWAT weight” value (ICR-CD1 mice [2]; female offspring, chow diet)?
Answer: no effect

Question: And the “offspring growth patterns during lactation” value (ICR-CD1 mice [2]; lean dams, 1% betaine in water)?
Answer: did not modulate

Question: And the milk intake (ICR-CD1 mice [2]; lean dams, pups at 1 week of age)?
Answer: did not modulate

Question: And the fat mass (ICR-CD1 mice [2]; male offspring at 6 weeks of age, vs control)?
Answer: decreased

Question: And the eWAT weight (ICR-CD1 mice [2]; male offspring, chow diet, 24 weeks)?
Answer: decreased

Question: What about the “body weight gain throughout adulthood” value (ICR-CD1 mice [2]; male offspring, chow diet, up to 24 weeks of age) of the same compound?
Answer: lower

Question: And the “glucose tolerance, food intake, energy expenditure, respiratory exchange ratio, activity levels” value (ICR-CD1 mice [2]; young mice)?
Answer: did not differ

Question: What about the fat mass (ICR-CD1 mice [3]; 6 weeks of age, MO-B vs MO-C) of the same compound?
Answer: trend towards lower

Question: What about the milk intake (ICR-CD1 mice [3]; MO-B vs MO-C) of the same compound?
Answer: no differences

Question: What about the “offspring growth during lactation” value (ICR-CD1 mice [3]; MO-B vs MO-C, obese dams) of the same compound?
Answer: moderated

Question: And the basal insulin levels (ICR-CD1 mice [3]; adult male offspring)?
Answer: decreased

Question: What about the glucose tolerance (ICR-CD1 mice [3]; adult male offspring) of the same compound?
Answer: improved

Question: What about the “body weight and adiposity” value (ICR-CD1 mice [3]; [6]) of the same compound?
Answer: lower

Question: And the “mRNA levels of inflammatory markers (Ccl2, Tlr4, Cd11c) in eWAT” value (ICR-CD1 mice [4]; six-week-old male offspring)?
Answer: decreased

Question: And the “circulating levels of IL-6” value (ICR-CD1 mice [4]; six-week-old male offspring, p<0.05)?
Answer: decreased

Question: What about the “circulating levels of MCP-1” value (ICR-CD1 mice [4]; six-week-old male offspring, p=0.08) of the same compound?
Answer: numerical decrease

Question: And the “circulating levels of PAI-1” value (ICR-CD1 mice [4]; six-week-old male offspring, p=0.25)?
Answer: numerical decrease

Question: And the “expression of Ccl2 in brown adipose, liver, and skeletal muscle” value (ICR-CD1 mice [4]; six-week-old offspring)?
Answer: decreased

Question: What about the “ileal Muc2 mRNA expression” value (ICR-CD1 mice [4]; six-week-old offspring) of the same compound?
Answer: increased

Question: And the ileal villi length (ICR-CD1 mice [4]; six-week-old offspring)?
Answer: no differences

Question: And the “increase of ileal goblet cell number” value (ICR-CD1 mice [4]; six-week-old offspring)?
Answer: 1.3 fold

Question: And the “reduction of hepatic triglyceride accumulation” value (ICR-CD1 mice [5]; HF-B group vs HF-C, male mice)?
Answer: 30%

Question: And the fecal lipid content (ICR-CD1 mice [5]; HFD)?
Answer: no differences

Question: And the cumulative food intake (ICR-CD1 mice [5]; HFD, did not reach statistical significance)?
Answer: modest numerical decrease

Question: And the body weight gain (ICR-CD1 mice [5]; male and female offspring on HFD, HF-B vs HF-C)?
Answer: lower

Question: And the insulin levels (ICR-CD1 mice [5]; male mice on HFD)?
Answer: decreased

Question: And the glucose tolerance (ICR-CD1 mice [5]; male mice on HFD, 18 weeks of life)?
Answer: ameliorated

Question: And the fasting glucose (ICR-CD1 mice [5]; male mice on HFD, Time 0)?
Answer: decreased
